This note sets out measurements from patent publication US11820773B2, “Tricyclic compounds” (ALIGOS THERAPEUTICS, INC., priority 2020, dated 2023).

One may read the EC50 as the midpoint of the concentration-response curve. Higher therefore signals lower potency in that assay.

SMILES strings stand for the structures.

In one assay the test system is HBV. Kind of assay: HBV-DNA antiviral assay using HepG2.117 cells (intracellular HBV DNA by qPCR). The settings on record: HBV DNA inhibition, 3 days incubation, 2% DMSO. Format: cell-based, genotype D HBV. The method, then:
The following assay procedure describes the HBV antiviral assay, using HepG2.117 cells, which carry a stably integrated genotype D HBV genome under the control of a Tet-off promoter, and intracellular HBV DNA quantification as endpoint. Cell viability is assessed in parallel by measuring the intracellular ATP content using CellTiter-Glo 2.0 (Promega).
On day 0, HepG2.117 cells (which are maintained in routine cell culture with doxycycline present in the medium at a final concentration of 1 μg/mL) were seeded in 96-well plates (white with clear bottom) at a density of 2.0×10^4 cells/well (0.1 mL/well) in medium without doxycycline to induce pgRNA transcription and subsequent formation of HBV particles. The cells were incubated at 37° C. and 5% CO2.
On day 1, medium was removed from each well, the test articles were diluted in culture medium without doxcycyline and 100 μL was added to cell culture wells (9 concentrations, 4-fold dilution). For each plate, 6 untreated (merely DMSO) wells were included. The final concentration of DMSO in the culture medium was 2%. Each plate was prepared in duplicate (one for HBV DNA extraction, one for CellTiter-Glo 2.0 measurement). The cells were incubated at 37° C. and 5% CO2 for 3 days.
On day 4, cell viability was assessed using CellTiter-Glo 2.0 and cell lysates were prepared for HBV DNA extraction and subsequent quantification by qPCR.
HBV DNA Quantification by qPCR
Medium was removed from each well and 100 μL of 0.33% NP-40 in H2O was added to each well. Plates were sealed, incubated at 4° C. for 5 mins, vortexed extensively and centrifuged briefly. Next, 35 μL of lysate was added to 65 μL QuickExtract DNA Extraction Solution (Epicentre) in a PCR plate for each well. PCR plate was incubated at 65° C. for 6 mins, 98° C. for 2 mins and finally cooled to 4° C. HBV DNA was then quantified by qPCR with HBV-specific primers and probes as specified in Table 1 using the Bio-Rad SSOAdvanced Universal Probes Supermix on a CFX96 machine (Bio-Rad). The PCR cycle program consisted of 95° C. for 3 mins, followed by 40 cycles at 95° C. for 10 sec and 60° C. for 30 sec.
A DNA standard was prepared by dilution of an IDT gBlock corresponding to the amplicon with concentrations ranging from 10^2 to 10^8 copies/input (i.e. per 4 μL) and used to generate a standard curve by plotting Cq values vs. HBV DNA standard concentration. The quantity of HBV DNA in each sample was determined by interpolating from the standard curve.
Cell viability was calculated as follows: % Cell viability=(luminescence value of test sample)/(average luminescence value of 2% DMSO control)×100%. HBV DNA inhibition was calculated as follows: 100−(HBV DNA copy number of test sample)/(average HBV DNA copy number of 2% DMSO control)×100%. No normalization to entecavir was required due to the excellent dynamic window of this assay. The CC50, EC50 and EC90 values were determined by dose-response curves fitted by GraphPad Prism using “log (agonist) vs. response—Variable slope”.
In general terms: Real-time PCR tracks product formation cycle by cycle.
`CNC(=O)c1ccc(-n2c(=O)c3c(n4ncc(Cc5ccccc5)c24)CN(C(=O)c2ccc(Br)c(C(F)(F)F)c2)CC3)cc1` [Compound 4, 4-[5-benzyl-12-[4-bromo-3-(trifluoromethyl)benzoyl]-8-oxo-2,3,7,12-tetrazacyclo[7.4.0.0^2,6]trideca-1(9),3,5-trien-7-yl]-N-methyl-benzamide] registered a half-maximal effective concentration (EC50) below 50 nM.

The same assay, now with this note: Hepatitis B virus, 72 h, HBV DNA inhibition, 3 days incubation, 2% DMSO.
On to `C[C@@H]1Cc2c(n3ncc(CC4CC4)c3n(-c3ccc(-c4nncn4C)cc3)c2=O)CN1C(=O)c1ccc(Br)c(C(F)(F)F)c1` (stereo in doubt) [Compound 40a, rac-(11R)-12-[4-bromo-3-(trifluoromethyl)benzoyl]-5-(cyclopropylmethyl)-11-methyl-7-[4-(4-methyl-1,2,4-triazol-3-yl)phenyl]-2,3,7,12-tetrazatricyclo[7.4.0.0^2,6]trideca-1(9),3,5-trien-8-one], for which the EC50 was below 50 nM.
Same read-out and setting: the same measure for `C[C@H]1Cc2c(n3ncc(Cc4ccccc4)c3n(-c3ccc(-c4nnn[nH]4)cc3)c2=O)CN1C(=O)c1ccc(Br)c(C(F)(F)F)c1` (stereo in doubt) [Compound 71b, rac-(11S)-5-benzyl-12-[4-bromo-3-(trifluoromethyl)benzoyl]-11-methyl-7-[4-(1H-tetrazol-5-yl)phenyl]-2,3,7,12-tetrazatricyclo[7.4.0.0^2,6]trideca-1(9),3,5-trien-8-one]: above 5000 nM.
Same read-out and setting: the same measure for `CNc1n[nH]c2cc(-n3c(=O)c4c(n5ncc(Cc6ccccc6)c35)CN(C(=O)c3ccc(Br)c(C(F)(F)F)c3)[C@H](C)C4)ccc12` (stereo in doubt) [Compound 43a, rac-(11R)-5-benzyl-12-[4-bromo-3-(trifluoromethyl)benzoyl]-11-methyl-7-[3-(methylamino)-1H-indazol-6-yl]-2,3,7,12-tetrazatricyclo[7.4.0.0^2,6]trideca-1(9),3,5-trien-8-one]: below 50 nM; for `Cc1nnnn1-c1ccc(-n2c(=O)c3c(n4ncc(Cc5ccccc5)c24)CN(C(=O)c2ccc(Br)c(C(F)(F)F)c2)[C@@H](C)C3)cc1` (stereo in doubt) [Compound 46b, rac-(11S)-5-benzyl-12-[4-bromo-3-(trifluoromethyl)benzoyl]-11-methyl-7-[4-(5-methyltetrazol-1-yl)phenyl]-2,3,7,12-tetrazatricyclo[7.4.0.0^2,6]trideca-1(9),3,5-trien-8-one]: 50 to 500 nM.
Still for that read-out and setting: with `C[C@@H]1Cc2c(n3ncc(Cc4ccccc4)c3n(-c3ccc4c(c3)nnn4C)c2=O)CN1C(=O)c1ccc(Br)c(C(F)(F)F)c1` (stereo in doubt) [Compound 72a, rac-(11R)-5-benzyl-12-[4-bromo-3-(trifluoromethyl)benzoyl]-11-methyl-7-(1-methylbenzotriazol-5-yl)-2,3,7,12-tetrazatricyclo[7.4.0.0^2,6]trideca-1(9),3,5-trien-8-one] the figure was below 50 nM; with `CNc1n[nH]c2cc(-n3c(=O)c4c(n5ncc(CC(C)C)c35)CN(C(=O)c3ccc(Br)c(Cl)c3)[C@H](C)C4)ccc12` (stereo in doubt) [Compound 57a, rac-(11R)-12-(4-bromo-3-chloro-benzoyl)-5-isobutyl-11-methyl-7-[3-(methylamino)-1H-indazol-6-yl]-2,3,7,12-tetrazatricyclo[7.4.0.0^2,6]trideca-1(9),3,5-trien-8-one], below 50 nM.
In turn, `C[C@@H]1Cc2c(n3ncc(Cc4ccccc4)c3n(-c3ccc(-c4n[nH]c(=O)n4C)cc3)c2=O)CN1C(=O)c1ccc(Br)c(C(F)(F)F)c1` (stereo in doubt) [Compound 58a, rac-(11R)-5-benzyl-12-[4-bromo-3-(trifluoromethyl)benzoyl]-11-methyl-7-[4-(4-methyl-5-oxo-1H-1,2,4-triazol-3-yl)phenyl]-2,3,7,12-tetrazatricyclo[7.4.0.0^2,6]trideca-1(9),3,5-trien-8-one] had an EC50 below 50 nM.
For `CNc1n[nH]c2cc(-n3c(=O)c4c(n5ncc(CC6CC6)c35)CN(C(=O)c3ccc(Br)c(C(F)(F)F)c3)CC4)ccc12` [Compound 28, 12-[4-bromo-3-(trifluoromethyl)benzoyl]-5-(cyclopropylmethyl)-7-[3-(methylamino)-1H-indazol-6-yl]-2,3,7,12-tetrazatricyclo[7.4.0.0^2,6]trideca-1(9),3,5-trien-8-one], the EC50 was below 50 nM.
On the same count and under the same terms, the same measure for `Cc1nnc(-c2ccc(-n3c(=O)c4c(n5ncc(Cc6ccccc6)c35)CN(C(=O)c3ccc(Cl)c(C(F)(F)F)c3)[C@@H](C)C4)cc2)[nH]1` (stereo in doubt) [Compound 52b, rac-(11S)-5-benzyl-12-[4-chloro-3-(trifluoromethyl)benzoyl]-11-methyl-7-[4-(5-methyl-4H-1,2,4-triazol-3-yl)phenyl]-2,3,7,12-tetrazatricyclo[7.4.0.0^2,6]trideca-1(9),3,5-trien-8-one]: 50 to 500 nM; for `CNC(=O)c1ccc(-n2c(=O)c3c(n4ncc(Cc5ccccc5)c24)CN(C(=O)c2ccc(Br)c(C)c2)CC3)cc1` [Compound 2, 4-[5-benzyl-12-(4-bromo-3-methyl-benzoyl)-8-oxo-2,3,7,12-tetrazatricyclo[7.4.0.0″2,6]trideca-1(9),3,5-trien-7-yl]-N-methyl-benzamide]: below 50 nM.
The same measure, in the same setting: with `Cc1nnc(-c2ccc(-n3c(=O)c4c(n5ncc(CC(C)C)c35)CN(C(=O)c3ccc(Br)c(Cl)c3)[C@H](C)C4)cc2)[nH]1` (stereo in doubt) [Compound 66a, rac-(11R)-12-(4-bromo-3-chloro-benzoyl)-5-isobutyl-11-methyl-7-[4-(5-methyl-4H-1,2,4-triazol-3-yl)phenyl]-2,3,7,12-tetrazatricyclo[7.4.0.0^2,6]trideca-1(9),3,5-trien-8-one] the figure was below 50 nM; with `CNc1n[nH]c2cc(-n3c(=O)c4c(n5ncc(CC(C)C)c35)CN(C(=O)c3ccc(Br)c(C(F)(F)F)c3)[C@@H](C)C4)ccc12` (stereo in doubt) [Compound 61b, rac-(11S)-12-[4-bromo-3-(trifluoromethyl)benzoyl]-5-isobutyl-11-methyl-7-[3-(methylamino)-1H-indazol-6-yl]-2,3,7,12-tetrazatricyclo[7.4.0.0^2,6]trideca-1(9),3,5-trien-8-one], 50 to 500 nM.
As for `Cc1nn[nH]c1-c1ccc(-n2c(=O)c3c(n4ncc(CC(C)C)c24)CN(C(=O)c2ccc(Br)c(C(F)(F)F)c2)[C@@H](C)C3)cc1` (stereo in doubt) [Compound 62b, rac-(11S)-12-[4-bromo-3-(trifluoromethyl)benzoyl]-5-isobutyl-11-methyl-7-[4-(4-methyl-1H-triazol-5-yl)phenyl]-2,3,7,12-tetrazatricyclo[7.4.0.0^2,6]trideca-1(9),3,5-trien-8-one], the concentration for a half-maximal effect (EC50) was in the range of 50 to 500 nM.
On to `C[C@@H]1Cc2c(n3ncc(CC4CC4)c3n(-c3ccc(C(=O)N(C)CO)cc3)c2=O)CN1C(=O)c1ccc(Br)c(C(F)(F)F)c1` (stereo in doubt) [Compound 101, N-(hydroxymethyl)-N-methyl-4-[rac-(11R)-12-[4-bromo-3-(trifluoromethyl)benzoyl]-5-(cyclopropylmethyl)-11-methyl-8-oxo-2,3,7,12-tetrazatricyclo[7.4.0.0^2,6]trideca-1(9),3,5-trien-7-yl]benzamide], for which the half-maximal effective concentration (EC50) lay within 50 to 500 nM.
The same measure, in the same setting: the same measure for `CNC(=O)c1ccc(-n2c(=O)c3c(n4ncc(Cc5ccccc5)c24)CN(C(=O)c2ccc(Br)c(C(F)(F)F)c2)[C@H](C)C3)cc1` (stereo in doubt) [Compound 38a, N-methyl-4-[rac-(11R)-5-benzyl-12-[4-bromo-3-(trifluoromethyl)benzoyl]-11-methyl-8-oxo-2,3,7,12-tetrazatricyclo[7.4.0.0^2,6]trideca-1(9),3,5-trien-7-yl]benzamide]: below 50 nM; for `C[C@@H]1Cc2c(n3ncc(Cc4ccccc4)c3n(-c3ccc(-c4noc(=O)n4C)cc3)c2=O)CN1C(=O)c1ccc(Br)c(C(F)(F)F)c1` (stereo in doubt) [Compound 41a, 4-methyl-3-[4-[rac-(11R)-5-benzyl-12-[4-bromo-3-(trifluoromethyl)benzoyl]-11-methyl-8-oxo-2,3,7,12-tetrazatricyclo[7.4.0.0^2,6]trideca-1(9),3,5-trien-7-yl]phenyl]-1,2,4-oxadiazol-5-one]: below 50 nM.
